Measurements as given in ChEMBL document CHEMBL1131309, “Isoindol-1-one analogues of 4-(2'-methoxyphenyl)-1-[2'-[N-(2"-pyridyl)-p-iodobenzamido]ethyl]pipera zine (p-MPPI) as 5-HT1A receptor ligands” (J Med Chem, 1998).

Assays:
[1] = molecular target: T1, 5-hydroxytryptamine receptor 1A (Rattus norvegicus, UniProt P19327)
T1 sequence (P19327 whole entry): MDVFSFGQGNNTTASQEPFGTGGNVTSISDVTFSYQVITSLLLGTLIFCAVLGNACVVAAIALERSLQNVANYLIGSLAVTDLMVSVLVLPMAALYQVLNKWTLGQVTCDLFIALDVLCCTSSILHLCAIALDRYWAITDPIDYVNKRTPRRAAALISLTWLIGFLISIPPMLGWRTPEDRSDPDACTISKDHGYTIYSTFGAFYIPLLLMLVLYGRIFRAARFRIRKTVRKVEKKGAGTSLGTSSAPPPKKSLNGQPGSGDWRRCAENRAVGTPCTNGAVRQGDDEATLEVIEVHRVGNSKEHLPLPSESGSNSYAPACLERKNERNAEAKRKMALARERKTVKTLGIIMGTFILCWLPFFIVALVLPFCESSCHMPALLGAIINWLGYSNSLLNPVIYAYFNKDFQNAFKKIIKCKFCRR
Description: (§1) In vitro binding affinity for 5-hydroxytryptamine 1A receptor in rat hippocampal membranes by [125I]-labeled agonist displacement.

[2] = tested on: Rattus norvegicus; assay: Biodistribution was measured in rat cerebellum by injecting the radiolabeled compound intravenously and the value measured after 30 min; assay type: ADME, organism-based; settings: in vivo, iv, 0.5 h
[3] = tested on: Rattus norvegicus; assay: Biodistribution was measured in blood of rat by injecting the radiolabeled compound intravenously and the value measured after 2 min; assay type: ADME, organism-based; settings: in vivo, iv
[4] = tested on: Rattus norvegicus; assay: Biodistribution was measured in rat brain by injecting the radiolabeled compound intravenously and the value measured after 2 min; assay type: ADME, organism-based; settings: in vivo, iv
[5] = tested on: Rattus norvegicus; assay: Biodistribution was measured in rat kidney by injecting the radiolabeled compound intravenously and the value measured after 60 min; assay type: ADME, organism-based; settings: in vivo, iv, 1 h
[6] = tested on: Rattus norvegicus; assay: Biodistribution was measured in rat skin by injecting the radiolabeled compound intravenously and the value measured after 60 min; assay type: ADME, organism-based, Zone of skin; settings: in vivo, iv, 1 h
[7] = tested on: Rattus norvegicus; assay: Biodistribution was measured in rat heart by injecting the radiolabeled compound intravenously and the value measured after 30 min; assay type: ADME, organism-based; settings: in vivo, iv, 0.5 h
[8] = tested on: Rattus norvegicus; assay: Biodistribution was measured in rat spleen by injecting the radiolabeled compound intravenously and the value measured after 2 min; assay type: ADME, organism-based; settings: in vivo, iv
[9] = tested on: Rattus norvegicus; assay: Biodistribution was measured in rat muscle by injecting the radiolabeled compound intravenously and the value measured after 30 min; assay type: ADME, organism-based, Muscle tissue; settings: in vivo, iv, 0.5 h
[10] = tested on: Rattus norvegicus; assay: Biodistribution was measured in rat spleen by injecting the radiolabeled compound intravenously and the value measured after 30 min; assay type: ADME, organism-based; settings: in vivo, iv, 0.5 h
[11] = tested on: Rattus norvegicus; assay: Biodistribution was measured in rat heart by injecting the radiolabeled compound intravenously and the value measured after 2 min; assay type: ADME, organism-based; settings: in vivo, iv
[12] = tested on: Rattus norvegicus; assay: Biodistribution was measured in rat muscle by injecting the radiolabeled compound intravenously and the value measured after 60 min; assay type: ADME, organism-based, Muscle tissue; settings: in vivo, iv, 1 h
[13] = molecular target: T1, 5-hydroxytryptamine receptor 1A; remark: listed apart in the source
Description: as §1

[14] = tested on: Rattus norvegicus; assay: Biodistribution was measured in rat skin by injecting the radiolabeled compound intravenously and the value measured after 30 min; assay type: ADME, organism-based, Zone of skin; settings: in vivo, iv, 0.5 h
[15] = tested on: Rattus norvegicus; assay: Biodistribution was measured in rat striatum by injecting the radiolabeled compound intravenously and the value measured after 60 min; assay type: ADME, organism-based; settings: in vivo, iv, 1 h
[16] = tested on: Rattus norvegicus; assay: Biodistribution was measured in rat cerebellum by injecting the radiolabeled compound intravenously and the value measured after 2 min; assay type: ADME, organism-based; settings: in vivo, iv
[17] = tested on: Rattus norvegicus; assay: Biodistribution was measured in rat brain by injecting the radiolabeled compound intravenously and the value measured after 60 min; assay type: ADME, organism-based; settings: in vivo, iv, 1 h
[18] = tested on: Rattus norvegicus; assay: Biodistribution was measured in rat liver by injecting the radiolabeled compound intravenously and the value measured after 30 min; assay type: ADME, organism-based; settings: in vivo, iv, 0.5 h
[19] = tested on: Rattus norvegicus; assay: Biodistribution was measured in rat hippocampus by injecting the radiolabeled compound intravenously and the value measured after 30 min; assay type: ADME, organism-based; settings: in vivo, iv, 0.5 h
[20] = tested on: Rattus norvegicus; assay: Biodistribution was measured in blood of rat by injecting the radiolabeled compound intravenously and the value measured after 60 min; assay type: ADME, organism-based; settings: in vivo, iv, 1 h
[21] = tested on: Rattus norvegicus; assay: Biodistribution was measured in rat lung by injecting the radiolabeled compound intravenously and the value measured after 2 min; assay type: ADME, organism-based; settings: in vivo, iv
[22] = tested on: Rattus norvegicus; assay: Biodistribution was measured in rat kidney by injecting the radiolabeled compound intravenously and the value measured after 30 min; assay type: ADME, organism-based; settings: in vivo, iv, 0.5 h
[23] = tested on: Rattus norvegicus; assay: Biodistribution was measured in rat lung by injecting the radiolabeled compound intravenously and the value measured after 60 min; assay type: ADME, organism-based; settings: in vivo, iv, 1 h
[24] = tested on: Rattus norvegicus; assay: Biodistribution was measured in rat cortex by injecting the radiolabeled compound intravenously and the value measured after 30 min; assay type: ADME, organism-based; settings: in vivo, iv, 0.5 h
[25] = tested on: Rattus norvegicus; assay: Biodistribution was measured in rat cortex by injecting the radiolabeled compound intravenously and the value measured after 60 min; assay type: ADME, organism-based; settings: in vivo, iv, 1 h
[26] = tested on: Rattus norvegicus; assay: Biodistribution was measured in rat lung by injecting the radiolabeled compound intravenously and the value measured after 30 min; assay type: ADME, organism-based; settings: in vivo, iv, 0.5 h
[27] = tested on: Rattus norvegicus; assay: Biodistribution was measured in rat spleen by injecting the radiolabeled compound intravenously and the value measured after 60 min; assay type: ADME, organism-based; settings: in vivo, iv, 1 h
[28] = tested on: Rattus norvegicus; assay: Biodistribution was measured in rat kidney by injecting the radiolabeled compound intravenously and the value measured after 2 min; assay type: ADME, organism-based; settings: in vivo, iv
[29] = Biodistribution was measured in hippocampus region(HP/CB) by injecting the radiolabeled compound intravenously and the value measured after 60 min; assay type: ADME, organism-based; settings: in vivo, iv, 1 h
[30] = tested on: Rattus norvegicus; assay: Biodistribution was measured in rat liver by injecting the radiolabeled compound intravenously and the value measured after 60 min; assay type: ADME, organism-based; settings: in vivo, iv, 1 h
[31] = tested on: Rattus norvegicus; assay: Biodistribution was measured in rat hippocampus by injecting the radiolabeled compound intravenously and the value measured after 2 min; assay type: ADME, organism-based; settings: in vivo, iv
[32] = tested on: Rattus norvegicus; assay: Biodistribution was measured in rat liver by injecting the radiolabeled compound intravenously and the value measured after 2 min; assay type: ADME, organism-based; settings: in vivo, iv
[33] = tested on: Rattus norvegicus; assay: Biodistribution was measured in rat brain by injecting the radiolabeled compound intravenously and the value measured after 30 min; assay type: ADME, organism-based; settings: in vivo, iv, 0.5 h
[34] = tested on: Rattus norvegicus; assay: Biodistribution was measured in rat thyroid by injecting the radiolabeled compound intravenously and the value measured after 60 min; assay type: ADME, organism-based, Thyroid gland; settings: in vivo, iv, 1 h
[35] = tested on: Rattus norvegicus; assay: Biodistribution was measured in rat thyroid by injecting the radiolabeled compound intravenously and the value measured after 2 min; assay type: ADME, organism-based, Thyroid gland; settings: in vivo, iv
[36] = tested on: Rattus norvegicus; assay: Biodistribution was measured in rat hippocampus by injecting the radiolabeled compound intravenously and the value measured after 60 min; assay type: ADME, organism-based; settings: in vivo, iv, 1 h
[37] = tested on: Rattus norvegicus; assay: Biodistribution was measured in rat cortex by injecting the radiolabeled compound intravenously and the value measured after 2 min; assay type: ADME, organism-based; settings: in vivo, iv
[38] = tested on: Rattus norvegicus; assay: Biodistribution was measured in rat muscle by injecting the radiolabeled compound intravenously and the value measured after 2 min; assay type: ADME, organism-based, Muscle tissue; settings: in vivo, iv
[39] = Biodistribution was measured in hippocampus region(HP/CB) by injecting the radiolabeled compound intravenously and the value measured after 2 min; assay type: ADME, organism-based; settings: in vivo, iv
[40] = tested on: Rattus norvegicus; assay: Biodistribution was measured in rat cerebellum by injecting the radiolabeled compound intravenously and the value measured after 60 min; assay type: ADME, organism-based; settings: in vivo, iv, 1 h
[41] = tested on: Rattus norvegicus; assay: Biodistribution was measured in blood of rat by injecting the radiolabeled compound intravenously and the value measured after 30 min; assay type: ADME, organism-based; settings: in vivo, iv, 0.5 h
[42] = tested on: Rattus norvegicus; assay: Biodistribution was measured in rat striatum by injecting the radiolabeled compound intravenously and the value measured after 2 min; assay type: ADME, organism-based; settings: in vivo, iv
[43] = tested on: Rattus norvegicus; assay: Biodistribution was measured in rat heart by injecting the radiolabeled compound intravenously and the value measured after 60 min; assay type: ADME, organism-based; settings: in vivo, iv, 1 h
[44] = Biodistribution was measured in hippocampus region(HP/CB) by injecting the radiolabeled compound intravenously and the value measured after 30 min; assay type: ADME, organism-based; settings: in vivo, iv, 0.5 h
[45] = tested on: Rattus norvegicus; assay: Biodistribution was measured in rat striatum by injecting the radiolabeled compound intravenously and the value measured after 30 min; assay type: ADME, organism-based; settings: in vivo, iv, 0.5 h
[46] = tested on: Rattus norvegicus; assay: Biodistribution was measured in rat thyroid by injecting the radiolabeled compound intravenously and the value measured after 30 min; assay type: ADME, organism-based, Thyroid gland; settings: in vivo, iv, 0.5 h

COc1ccccc1N1CCN(CCN2C(=O)c3cc(N)ccc3C2(O)c2ccccc2)CC1 (stereo unspecified)
Ki [1]: 1.85 nM

COc1ccccc1N1CCN(CCN(C(=O)c2ccc(I)cc2)c2ccccn2)CC1
Ki [1]: 0.2 nM

COc1ccccc1N1CCN(CCN2C(=O)c3cc([N+](=O)[O-])ccc3C2c2ccccc2)CC1 (stereo unspecified)
Ki [1]: 0.045 nM

COc1ccccc1N1CCN(CCN2C(=O)c3ccccc3C2c2ccccn2)CC1 (stereo unspecified)
Ki [1]: 6.5 nM

COc1ccccc1N1CCN(CCN2C(=O)CCC2c2ccc(I)cc2)CC1 (stereo unspecified)
Biodistribution [2]: 0.12 % dose organ-1
Biodistribution [3]: 5.6 % dose organ-1
Biodistribution [4]: 0.71 % dose organ-1
Biodistribution [5]: 1 % dose organ-1
Biodistribution [6]: 6.93 % dose organ-1
Biodistribution [7]: 0.33 % dose organ-1
Biodistribution [8]: 0.27 % dose organ-1
Biodistribution [9]: 19.08 % dose organ-1
Ki [1]: 2.54 nM
Biodistribution [10]: 0.22 % dose organ-1
Biodistribution [11]: 0.77 % dose organ-1
Biodistribution [12]: 9.05 % dose organ-1
Ki [13]: 2.54 nM
Biodistribution [14]: 7.41 % dose organ-1
Biodistribution [15]: 0.053 % dose organ-1
Biodistribution [16]: 0.46 % dose organ-1
Biodistribution [17]: 0.08 % dose organ-1
Biodistribution [18]: 23.02 % dose organ-1
Biodistribution [19]: 0.13 % dose organ-1
Biodistribution [20]: 2.08 % dose organ-1
Biodistribution [21]: 1.54 % dose organ-1
Biodistribution [22]: 2.2 % dose organ-1
Biodistribution [23]: 0.42 % dose organ-1
Biodistribution [24]: 0.14 % dose organ-1
Biodistribution [25]: 0.048 % dose organ-1
Biodistribution [26]: 0.75 % dose organ-1
Biodistribution [27]: 0.15 % dose organ-1
Biodistribution [28]: 3.02 % dose organ-1
Biodistribution [29]: 0.88 % dose organ-1
Biodistribution [30]: 17.95 % dose organ-1
Biodistribution [31]: 0.47 % dose organ-1
Biodistribution [32]: 19.49 % dose organ-1
Biodistribution [33]: 0.21 % dose organ-1
Biodistribution [34]: 0.03 % dose organ-1
Biodistribution [35]: 0.06 % dose organ-1
Biodistribution [36]: 0.045 % dose organ-1
Biodistribution [37]: 0.57 % dose organ-1
Biodistribution [38]: 14.07 % dose organ-1
Biodistribution [39]: 1.02 % dose organ-1
Biodistribution [40]: 0.051 % dose organ-1
Biodistribution [41]: 3.45 % dose organ-1
Biodistribution [42]: 0.55 % dose organ-1
Biodistribution [43]: 0.18 % dose organ-1
Biodistribution [44]: 1.08 % dose organ-1
Biodistribution [45]: 0.15 % dose organ-1
Biodistribution [46]: 0.04 % dose organ-1

COc1ccccc1N1CCN(CCN2Cc3ccccc3C2=O)CC1
Ki [1]: 14.9 nM
